Assay results as given in patent publication US20080299563A1, “HUMAN MAP2 GENE PROMOTER” (priority 2007, published 2008).

Legend:
MAP2 promoter [1] = test: Notch1 inhibition / HES1 knockdown, phMAP2-2 luciferase assay in WM35 primary melanoma cells; assay type: cell-based, human; conditions: DAPT 1 or 2 μM, 0.6 μg HES1shRNA
Procedure: (§1) Transient transfection and luciferase assays: Transient transfections with various promoter constructs were performed using Lipofectamine (Invitrogen, Carlsbad, Calif.) according to the manufacturer's instructions. Cells in 24- or 6-well tissue culture dishes, in triplicates, were transfected with 0.6 or 3 μg, respectively, of empty vector pGL3 or promoter-reporter constructs (phMAP2-1, phMAP2-2, phMAP2-3 and phMAP2-4) and 0.07 or 0.5 μg Renilla luciferase plasmid pRL. In co-transfection experiments, different amounts of NeuroD and Hes1 expression plasmids were added. For Notch1 inhibition and HES1 knockdown experiments, cells were either pre-treated with indicated amount of γ-secretase inhibitor-DAPT (Calbiochem, La Jolla, Calif.) and/or transfected with indicated amount of lentiviral HES1shRNA plasmid (The RNAi Consortium collection, a library of short hairpin DNAs cloned in pLKO.1 lentiviral vector; Open biosystem, Huntsville, Ala.) 1 day before transfection with MAP2 promoter constructs. After 48 h of transfection, cells were washed with pre-chilled PBS and lysed in passive lysis buffer (Dual Luciferase kit, Promega). Firefly luciferase and Renilla luciferase activities in the cell lysates were measured according to the manufacturer's instructions using TD 20/20-luminometer (Turner Biosystems, Sunnyvale, Calif.). […]

MAP2 promoter [2] = test: Notch1 inhibition / HES1 knockdown, phMAP2-2 luciferase assay in 451Lu metastatic melanoma cells; assay type: cell-based, human; conditions: DAPT 1 or 2 μM, 0.6 μg HES1shRNA
Procedure: as §1

C[C@H](NC(=O)Cc1cc(F)cc(F)c1)C(=O)N[C@H](C(=O)OC(C)(C)C)c1ccccc1 [DAPT]
MAP2 promoter activity (phMAP2-2 luciferase) (MAP2 promoter [1]): dose-dependent increase
MAP2 promoter activity (phMAP2-2 luciferase) (MAP2 promoter [2]): not sufficient to activate MAP2 promoter
